Reference: PubChem BioAssay (NCI)
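Following 48 hours of exposure in 96-well plates, responses at five concentrations were used to interpolate endpoints linearly. Abbreviation: GI50, concentration required for 50% inhibition of growth. TGI denotes the concentration required for complete inhibition of growth.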

System: MDA-MB-468 breast
Experiment: inhibition of tumour cell growth, NCI panel, 48 h

Row | SMILES | GI50 [µM] | TGI [µM]
1 | NCc1ccc(-n2c(-c3nonc3N)nc3cnccc32)cc1 | 2.75 | 11.8
2 | COC(=O)[C@@H]1CCCN1C(=O)[C@@H]1CCCN1C(=O)[C@@H](Cc1c[nH]c2ccccc12)NC(=S)Nc1cc(C(F)(F)F)cc(C(F)(F)F)c1 | 2.05 | 7.02
3 | CCN1C(=O)N(CC)C2C1NN=c1s/c(=C3\C(=O)N(C)c4ccccc43)c(=O)n12 (stereo not drawn) | 0.354 | 6.01
4 | CS(=O)(=O)Nc1cc(-c2ccc3ncnc(Nc4ccc5c(cnn5Cc5ccc(F)cc5)c4)c3c2)cnc1Cl | 0.281 | 1.52
5 | CCc1c[nH]c2ncnc(N3CC[C@@](N)(CNC(=O)c4ccc(F)cc4F)C3)c12 | 15 | 63.7
6 | CCOC(=O)N1CCN(S(=O)(=O)c2oc(-c3ccc(Cl)cc3)nc2C#N)CC1 | 1.89 | 4.09
7 | Nc1nc(Nc2cccc(F)c2)nc2ccccc12 | 13.6 | 30.8
8 | CCCCCc1c(C)[nH]c(/C=C2\N=C(c3ccc[nH]3)C=C2Oc2ccc(Cl)cc2)c1C | 0.0243 | 2.18
9 | Clc1ccc2nc(Oc3ccccc3)cnc2c1 | > 100 | > 100
10 | COc1ccc(/C=C2\CCCC3=C2NC(C)=NC3c2ccc(OC)c(OC)c2)cc1OC (stereo not drawn) | 1.29 | 8.18
11 | Fc1ccc(Nc2nccc(-c3c(-c4ccc(C(F)(F)F)cc4)nn4ncccc34)n2)cc1F | > 20 | > 25
12 | C=C[C@]1(C)C=C2C(=O)[C@@]3(O)OC[C@@]4(CCCC(C)(C)C43O)C2(O)C(O)C1 (stereo partly drawn) | 1.29 | 3.16
13 | O=C(/C=C/c1ccccc1Cl)Nc1ncc(Cc2cc(Cl)ccc2Cl)s1 | 0.934 | 11.1
14 | Oc1cc(Cl)ccc1Oc1ccc(Cl)cc1Cl | 2.42 | 7.24
15 | Cc1cc(N2CCCC2)nc(N(CCCNc2ccnc3cc(Cl)ccc23)Cc2ccc3c(c2)OCO3)n1 | 1.18 | 3.55
16 | Cn1cc(-c2ccc(CNc3cc(-c4cnc5cc(OCCCN6CCCC6)ccn45)ncn3)cc2)cn1 | 1.66 | 3.21
17 | Cn1cc(-c2cc(N)n3nc(-c4cn(C)c5ccc(F)cc45)cc3n2)c2cc(F)ccc21 | 1.59 | 3.45
18 | COc1cc(/C=C(/c2ccccc2)[N+](=O)[O-])c(OC)c2c1OCO2 | 1.33 | 2.73
19 | Cn1cc(-c2ccc3c(c2)CCN3C(=O)Cc2cccc(C(F)(F)F)c2)c2c(N)ncnc21 | 3.71 | 29.2
20 | CC(C)OC(=O)c1ccc2[nH]c(O)c(C(=Nc3ccc(N(C)C(=O)CN4CCN(C)CC4)cc3)c3ccccc3)c2c1 | 0.964 | 2.46
21 | CC1=CC(=O)C(C(C)=Nc2ccccc2Cl)C(=O)O1 (stereo not drawn) | > 100 | > 100
22 | O=c1oc2ccc(Cl)cc2c(=O)n1-c1ccc(I)cc1F | 0.269 | 0.87
23 | COc1ccccc1-c1c(C)nn2c(NCc3ccccn3)cc(C)nc12 | 1.66 | > 40.4
24 | COC1CCN(Cc2ccc3c(NNC(=O)c4cnccn4)nc4cc(F)ccc4n23)C1 (stereo not drawn) | 0.916 | 4.27
